Columns and labels:
[1] = system: SW620 colorectal cancer cells; experiment: Serum-free cell survival of SW620 cells (Hoescht staining); format: cell-based; conditions: 48 h, vs DMSO, average of n = 3/group
Method: (§1) Cell Culture. SW620 cells were purchased from ATCC. SW620 cells were grown in L-15 media with 10% fetal bovine serum (FBS) in ambient CO2. U2OS cells were grown in DMEM media supplemented with 10% FBS at 37° C. with 5% CO2.
(§2) Survival and Proliferation Assays. Cells were plated the evening before the experiment, and allowed to adhere overnight. For serum-free cell survival assays, cells were plated in media not containing FBS. For cell proliferation assays, cells were plated in regular media. For the chemical genetics screen, cells were treated with either DMSO or the cysteine-reactive fragment for 48 h and cell viability was assessed by Hoescht stain using our previously described methods

[2] = system: SW620 colorectal cancer cells; experiment: Cell proliferation of SW620 cells (Hoescht staining); format: cell-based; conditions: 48 h, vs DMSO, average of n = 3/group
Method: as §1, §2

[3] = Body weight and overt toxicity of mice in the tumor xenograft study; format: in vivo; conditions: 50 mg/kg ip once per day, weighed at the end of the study
Method: Mice from tumor xenograft studies shown in FIG. 1E were weighed at the end of the study. […] Data are presented as mean±sem, n=8 mice/group.
Tumor Xenograft Growth Studies. C.B17 SCID male mice (6-8 weeks old) were injected subcutaneously into the flank with 2,000,000 cells in serum-free media. […] Tumors were measured every 7 days by caliper measurements.

[4] = system: U2OS cells expressing GFP-tagged Sec61β; experiment: ER morphology by fluorescence microscopy in U2OS cells expressing GFP-Sec61β; format: cell-based
Method: (§3) Fluorescence microscopy. SW620 and U2OS cells were transiently transfected with a plasmid encoding GFP-tagged Sec61β using fuGENE6 (Roche) according to the manufacturer's instructions. Transfected cells plated on poly-L-lysine treated coverslips were treated, washed in PBS, and fixed by incubation in 4% paraformaldehyde in PBS for 10 min. Fixed cells were washed extensively in PBS and nuclei stained by addition of 4′,6-diamidino-2-phenylindole (DAPI) (Thermo Fisher Scientific) for 10 min. Coverslips were mounted using Fluoromount-G (SouthernBiotech) and visualized using a DeltaVision Elite microscope outfitted with a 60× oil immersion objective. Acquired stacks of images of fixed cells were deconvolved and analyzed using SoftWoRx and ImageJ. For time-lapse imaging of live cells, transfected cells were plated on poly-L-lysine treated glass-bottom 4-well imaging chambers (Lab-Tek II; Thermo Fisher Scientific). Imaging was performed using a DeltaVision Elite microscope encased in a chamber that was maintained at 37° C. and was continuously perfused with humidified 5% CO2. Acquired images were analyzed using SoftWoRx and ImageJ.

[5] = system: U2OS cells expressing GFP-tagged Sec61β; experiment: Time-lapse imaging of mitosis and nuclear envelope in U2OS cells expressing GFP-Sec61β; format: cell-based; conditions: DKM 3-30 50 μM
Method: FIGS. 4A-4C. DKM 3-30 disrupts nuclear envelope morphology during mitosis. (FIGS. 4A-4C) U2OS cells expressing GFP-tagged Sec61β were treated with vehicle (DMSO) or DKM 3-30 (50 μM) and the ER morphology of mitotic cells visualized by time-lapse fluorescence microscopy. Time (min) is indicated on each panel. Panels (FIGS. 4A, 4B) provide examples of mitotic cells. Enlarged images following mitosis show the nuclear envelope. White arrowheads indicate a GFP-Sec61β structure bisecting the nucleus of a cell incubated with DKM 3-30. […] Bottom panels indicate boxed region.
as §3, with “For time-lapse imaging of live cells, transfected cells were plated on poly-L-lysine treated glass-bottom 4-well imaging chambers (Lab-Tek II; Thermo Fisher Scientific). Imaging was performed using a DeltaVision Elite microscope encased in a chamber that was maintained at 37° C. and was continuously perfused with humidified 5% CO2.” left out

[6] = system: SW620 cells expressing GFP-tagged Sec61β; experiment: ER morphology by fluorescence microscopy in SW620 cells expressing GFP-Sec61β; format: cell-based; conditions: DKM 3-30 50 μM
Method: FIG. 8. ER Morphology in SW620 Colorectal Cancer Cells. SW620 cells expressing GFP-tagged Sec61β were treated with DKM 3-30 (50 μM) for the indicated times and the ER (light gray/white) and nuclear (dark gray) morphology visualized by fluorescence microscopy.
as §3

[7] = system: MEF cells expressing human RTN4-GFP; experiment: Apoptosis (propidium iodine and Annexin-V, flow cytometry) in MEF cells expressing human RTN4-GFP; format: cell-based, mouse; conditions: DKM 3-30 50 μM, 0, 8 or 16 h
Method: FIG. 12. Effect of DKM 3-30 in Mouse Embryonic Fibroblast (MEF) cells expressing human RTN4. C1101 in human RTN4 is instead a serine in mouse RTN4. […] GFP or RTN4-GFP expressing MEF cells were treated with DKM 3-30 (50 μM) for 0, 8, or 16 h and apoptotic cells (propidium iodine positive and Annexin-V positive) were assessed by flow cytometry. Data are presented as mean±sem. Significance is expressed as *p<0.05 compared to 0 h time-point.

[8] = cysteine-reactive fragment 50 μM

Structure (SMILES): C=CC(=O)Nc1ccc(Oc2ccc(Cl)cc2)cc1 [DKM 3-30, N-(4-(4-chlorophenoxy)phenyl)acrylamide]
- viability at 50 µM ([1]; Homo sapiens, SW-620, cysteine-reactive fragment 50 μM, read-out: SW620 survival Ave): 31%
- SW620 survival Ave [1, 8]: significantly impaired
- activity at 50 µM ([2]; Homo sapiens, SW-620, cysteine-reactive fragment 50 μM, read-out: SW620 proliferation Ave): 54%
- SW620 proliferation Ave [2, 8]: significantly impaired
- body weight and signs of overt toxicity [3]: without any changes in body weight or any signs of overt toxicity
- ER morphology in U2OS cells ([4]; DKM 3-30 50 μM (8 hr, 16 hr, time-lapse), AMR 1-125 1 μM, YP 1-46 50 μM): striking loss of nearly all peripheral ER tubules and an increase in ER that exhibited sheet-like morphology
- time at which alterations in the ER morphology were evident ([4]; DKM 3-30 50 μM, time-lapse imaging): 0.5-1 hr
- nuclear envelope morphology following mitosis [5]: aberrant nuclei that were bisected by GFP-Sec61β positive structures
- duration of mitosis ([5]; control cells ~50-60 min): 3 to 4 h
- ER morphology in SW620 cells [6]: suggest alterations in the ER morphology
- apoptosis in MEF cells expressing human RTN4-GFP [7]: induces apoptosis

— patent US20200062696A1, “COMPOSITIONS AND METHODS FOR INHIBITING RETICULON 4” (THE REGENTS OF THE UNIVERSITY OF CALIFORNIA, priority 2017, published 2020)
